Laboratory results as given in PubChem BioAssay AID248 (DTP/NCI, 2004).
Where “and” joins values, the source holds several entries; their conditions need not be identical. Equal entries are not always repeated. Inconclusive results and toxic doses are left out.

System: L1210 leukemia ip in BDF1 mice, survival T/C
Test: NCI In Vivo Anticancer Drug Screen. Data for tumor model L1210 Leukemia (intraperitoneal) in B6D2F1 (BDF1) mice
Settings: endpoint: mean survival time, higher = longer survival
In short: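 Transplanted-tumor mice were given test agent; controls received vehicle only. Survival readings from the two groups were divided (treated over control).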

[1] = dose: 100.0 mg/kg/injection, schedule: Q04DX003 (ip), vehicle: Klucel (hydroxypropylcellulose) (HPC)
[2] = dose: 200.0 mg/kg/injection, schedule: Q04DX003 (ip), vehicle: Klucel (hydroxypropylcellulose) (HPC)
[3] = dose: 400.0 mg/kg/injection, schedule: Q04DX003 (ip), vehicle: Klucel (hydroxypropylcellulose) (HPC)
[4] = dose: 100.0 mg/kg/injection, schedule: Q01DX001 (ip), vehicle: saline
[5] = dose: 200.0 mg/kg/injection, schedule: Q01DX001 (ip), vehicle: saline
[6] = dose: 400.0 mg/kg/injection, schedule: Q01DX001 (ip), vehicle: saline

For `CCC1CN2CCc3cc(OC)c(OC)cc3C2CC1CC1c2cc(OC)c(OC)cc2CCN1C(=O)C(Cc1c[nH]c2ccccc12)NC(=O)OC(C)(C)C` (stereo not given), the T/C (dose: 4.0 mg/kg/injection, schedule: Q03HX008 (ip), vehicle: saline with Tween-80) was 100 % of control, the T/C (dose: 4.0 mg/kg/injection, schedule: Q03HX016 (ip), vehicle: saline with Tween-80) was 93 % of control and the T/C (dose: 4.0 mg/kg/injection, schedule: Q03HX024 (ip), vehicle: saline with Tween-80) was 101 % of control. For the same compound, the T/C (dose: 8.0 mg/kg/injection, schedule: Q03HX008 (ip), vehicle: saline with Tween-80) was 105 % of control, the T/C (dose: 8.0 mg/kg/injection, schedule: Q03HX016 (ip), vehicle: saline with Tween-80) was 101 % of control and the T/C (dose: 8.0 mg/kg/injection, schedule: Q03HX024 (ip), vehicle: saline with Tween-80) was 98 % of control. The T/C (dose: 16.0 mg/kg/injection, schedule: Q01DX009 (oral), vehicle: saline with Tween-80) was 112 % of control, the T/C (dose: 16.0 mg/kg/injection, schedule: Q03HX008 (ip), vehicle: saline with Tween-80) was 101 % of control and the T/C (dose: 16.0 mg/kg/injection, schedule: Q03HX016 (ip), vehicle: saline with Tween-80) was 100 % of control. For the same compound, the T/C (dose: 16.0 mg/kg/injection, schedule: Q03HX024 (ip), vehicle: saline with Tween-80) was 97 % of control, the T/C (dose: 32.0 mg/kg/injection, schedule: Q01DX005 (ip), vehicle: saline with Tween-80) was 95 % of control and the T/C (dose: 32.0 mg/kg/injection, schedule: Q01DX009 (ip), vehicle: saline with Tween-80) was 104 % of control. For the same compound, the T/C (dose: 32.0 mg/kg/injection, schedule: Q01DX009 (oral), vehicle: saline with Tween-80) was 114 % of control, the T/C (dose: 32.0 mg/kg/injection, schedule: Q03HX008 (ip), vehicle: saline with Tween-80) was 92 % of control and the T/C (dose: 32.0 mg/kg/injection, schedule: Q03HX016 (ip), vehicle: saline with Tween-80) was 97 % of control. The T/C (dose: 32.0 mg/kg/injection, schedule: Q03HX024 (ip), vehicle: saline with Tween-80) was 98 % of control, the T/C (dose: 32.0 mg/kg/injection, schedule: Q04DX003 (ip), vehicle: saline with Tween-80) was 162 % of control and the T/C (dose: 37.5 mg/kg/injection, schedule: Q01DX009 (ip), vehicle: saline) was 95 % of control. The T/C (dose: 64.0 mg/kg/injection, schedule: Q01DX001 (ip), vehicle: saline with Tween-80) was 100 % of control, the T/C (dose: 64.0 mg/kg/injection, schedule: Q01DX005 (ip), vehicle: saline with Tween-80) was 102 % of control and the T/C (dose: 64.0 mg/kg/injection, schedule: Q01DX009 (ip), vehicle: saline with Tween-80) was 100 % of control. For the same compound, the T/C (dose: 64.0 mg/kg/injection, schedule: Q01DX009 (oral), vehicle: saline with Tween-80) was 114 % of control, the T/C (dose: 64.0 mg/kg/injection, schedule: Q04DX003 (ip), vehicle: saline with Tween-80) was 97 % of control and the T/C (dose: 64.0 mg/kg/injection, schedule: Q08DX002 (ip), vehicle: saline with Tween-80) was 98 % of control. For the same compound, the T/C (dose: 75.0 mg/kg/injection, schedule: Q01DX009 (ip), vehicle: saline) was 103 % of control, the T/C (dose: 89.0 mg/kg/injection, schedule: Q01DX001 (ip), vehicle: saline) was 115 % of control and the T/C (dose: 128.0 mg/kg/injection, schedule: Q01DX001 (ip), vehicle: saline with Tween-80) was 102 % of control. For the same compound, the T/C (dose: 128.0 mg/kg/injection, schedule: Q01DX005 (ip), vehicle: saline with Tween-80) was 101 % of control, the T/C (dose: 128.0 mg/kg/injection, schedule: Q01DX009 (ip), vehicle: saline with Tween-80) was 105 % of control and the T/C (dose: 128.0 mg/kg/injection, schedule: Q04DX003 (ip), vehicle: saline with Tween-80) was 105 % of control. The T/C (dose: 128.0 mg/kg/injection, schedule: Q08DX002 (ip), vehicle: saline with Tween-80) was 95 % of control, the T/C (dose: 256.0 mg/kg/injection, schedule: Q01DX001 (ip), vehicle: saline with Tween-80) was 97 % of control and the T/C (dose: 256.0 mg/kg/injection, schedule: Q01DX009 (oral), vehicle: saline with Tween-80) was 118 % of control. The T/C (dose: 256.0 mg/kg/injection, schedule: Q04DX003 (ip), vehicle: saline with Tween-80) was 96 % of control, the T/C (dose: 256.0 mg/kg/injection, schedule: Q08DX002 (ip), vehicle: saline with Tween-80) was 98 % of control and the T/C (dose: 300.0 mg/kg/injection, schedule: Q01DX009 (ip), vehicle: saline) was 90 % of control. For the same compound, the T/C (dose: 512.0 mg/kg/injection, schedule: Q01DX001 (ip), vehicle: saline with Tween-80) was 102 % of control and the T/C (dose: 512.0 mg/kg/injection, schedule: Q08DX002 (ip), vehicle: saline with Tween-80) was 106 % of control.
With `COc1ccc2c(c1OC)C13CCCCC1C(C2)[N+](C)(C)CC3` (stereo not given) the T/C (dose: 12.5 mg/kg/injection, schedule: Q04DX003 (ip), vehicle: Klucel (hydroxypropylcellulose) (HPC)) was 100 % of control and 91 % of control, the T/C (dose: 25.0 mg/kg/injection, schedule: Q01DX009 (ip), vehicle: Klucel (hydroxypropylcellulose) (HPC)) was 100 % of control and the T/C (dose: 25.0 mg/kg/injection, schedule: Q04DX003 (ip), vehicle: Klucel (hydroxypropylcellulose) (HPC)) was 94 % of control and 106 % of control. The T/C (dose: 50.0 mg/kg/injection, schedule: Q01DX009 (ip), vehicle: Klucel (hydroxypropylcellulose) (HPC)) was 89 % of control, the T/C (dose: 50.0 mg/kg/injection, schedule: Q04DX003 (ip), vehicle: Klucel (hydroxypropylcellulose) (HPC)) was 96 % of control and 88 % of control and the T/C [1] was 98 % of control.
For `Cc1cccc(C)c1NC(=O)/C=C\C(=O)O`, the T/C [1] was 98 % of control, the T/C [2] was 91 % of control and the T/C [3] was 94 % of control.
In the case of `O=C(O)c1cc(N2C(=O)C=CC2=O)cc(N2C(=O)C=CC2=O)c1`, the T/C (dose: 11.1 mg/kg/injection, schedule: Q01DX Z (ip), vehicle: methylcellulose (MC)) is reported as 102 % of control, the T/C (dose: 16.6 mg/kg/injection, schedule: Q01DX Z (ip), vehicle: methylcellulose (MC)) is reported as 102 % of control and the T/C (dose: 25.0 mg/kg/injection, schedule: Q01DX Z (ip), vehicle: methylcellulose (MC)) is reported as 94 % of control.
With `COC(=O)COC1=NCC([N+](=O)[O-])CC1` (stereo not given) the T/C [1] was 100 % of control, the T/C [2] was 107 % of control and the T/C [3] was 102 % of control.
For `Cn1c(=O)c2c(nc(OC3CCC=CO3)n2C)n(C)c1=O` (stereo not given), the T/C (dose: 50.0 mg/kg/injection, schedule: Q01DX001 (ip), vehicle: other) was 98 % of control, the T/C (dose: 100.0 mg/kg/injection, schedule: Q01DX001 (ip), vehicle: other) was 95 % of control and the T/C (dose: 200.0 mg/kg/injection, schedule: Q01DX001 (ip), vehicle: other) was 88 % of control.
`CCCCCCCCCC(=O)N1CCCCC1C` (stereo not given) was tested, and the T/C (dose: 25.0 mg/kg/injection, schedule: Q04DX002 (ip), vehicle: carboxymethylcellulose (CMC)) was 97 % of control and 99 % of control, the T/C (dose: 50.0 mg/kg/injection, schedule: Q01DX001 (ip), vehicle: carboxymethylcellulose (CMC)) was 93 % of control and the T/C (dose: 50.0 mg/kg/injection, schedule: Q01DX009 (ip), vehicle: carboxymethylcellulose (CMC)) was 98 % of control and 103 % of control. The T/C (dose: 50.0 mg/kg/injection, schedule: Q04DX002 (ip), vehicle: carboxymethylcellulose (CMC)) was 96 % of control and 97 % of control, the T/C (dose: 50.0 mg/kg/injection, schedule: Q04DX003 (ip), vehicle: carboxymethylcellulose (CMC)) was 95 % of control and the T/C (dose: 100.0 mg/kg/injection, schedule: Q01DX001 (ip), vehicle: carboxymethylcellulose (CMC)) was 93 % of control. For the same compound, the T/C (dose: 100.0 mg/kg/injection, schedule: Q01DX009 (ip), vehicle: carboxymethylcellulose (CMC)) was 94 % of control and 100 % of control, the T/C (dose: 100.0 mg/kg/injection, schedule: Q04DX003 (ip), vehicle: carboxymethylcellulose (CMC)) was 97 % of control and the T/C (dose: 200.0 mg/kg/injection, schedule: Q01DX001 (ip), vehicle: carboxymethylcellulose (CMC)) was 96 % of control. For the same compound, the T/C (dose: 200.0 mg/kg/injection, schedule: Q01DX009 (ip), vehicle: carboxymethylcellulose (CMC)) was 100 % of control and 104 % of control, the T/C (dose: 200.0 mg/kg/injection, schedule: Q04DX002 (ip), vehicle: carboxymethylcellulose (CMC)) was 107 % of control and 92 % of control and the T/C (dose: 200.0 mg/kg/injection, schedule: Q04DX003 (ip), vehicle: carboxymethylcellulose (CMC)) was 95 % of control. For the same compound, the T/C (dose: 400.0 mg/kg/injection, schedule: Q04DX002 (ip), vehicle: carboxymethylcellulose (CMC)) was 103 % of control and 90 % of control.
For `CCC(CC)(c1ccccc1)C(OC(N)=O)c1ccccc1` (stereo not given), the T/C (dose: 50.0 mg/kg/injection, schedule: Q01DX001 (ip), vehicle: saline) was 90 % of control, the T/C [4] was 101 % of control and the T/C [5] was 92 % of control. For the same compound, the T/C [6] was 90 % of control.
For `CC(C)(N)CC(=O)Oc1ccccc1`, the T/C (dose: 37.5 mg/kg/injection, schedule: Q04DX003 (ip), vehicle: saline) was 97 % of control, the T/C (dose: 75.0 mg/kg/injection, schedule: Q01DX001 (ip), vehicle: saline) was 104 % of control and the T/C (dose: 150.0 mg/kg/injection, schedule: Q01DX001 (ip), vehicle: saline) was 101 % of control. The T/C (dose: 150.0 mg/kg/injection, schedule: Q04DX003 (ip), vehicle: saline) was 92 % of control.
In the case of `NC(=O)N(N)CCO`, the T/C [4] is reported as 102 % of control, the T/C [5] is reported as 91 % of control and the T/C [6] is reported as 93 % of control.
